This is an account of results in ChEMBL document CHEMBL1268896, “Development of the next generation of HIV-1 integrase inhibitors: pyrazolone as a novel inhibitor scaffold” (Bioorg Med Chem Lett, 2010).

In general, IC50 refers to the concentration needed to halve the response being measured. Low values mean greater potency, high ones weaker potency.

Each structure is given as a SMILES string. A value given as a limit tells only on which side of the number the result lay.

Assay [1] deals with T1, Human immunodeficiency virus type 1 integrase (Human immunodeficiency virus 1, UniProt Q7ZJM1). The assay is described as follows: Inhibition of HIV1 integrase strand transfer activity.
For assay [2], the target named is T1, Human immunodeficiency virus type 1 integrase. Kind of assay: Inhibition of HIV1 integrase 3' processing activity.

T1 sequence (Q7ZJM1 whole entry): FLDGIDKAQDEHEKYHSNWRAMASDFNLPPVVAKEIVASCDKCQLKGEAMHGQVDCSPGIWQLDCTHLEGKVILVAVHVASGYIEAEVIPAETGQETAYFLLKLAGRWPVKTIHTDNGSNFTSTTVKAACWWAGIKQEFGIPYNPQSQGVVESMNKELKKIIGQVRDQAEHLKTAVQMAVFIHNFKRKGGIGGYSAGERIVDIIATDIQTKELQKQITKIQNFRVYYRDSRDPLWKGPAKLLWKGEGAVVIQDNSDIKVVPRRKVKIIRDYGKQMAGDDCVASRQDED

For `COc1ccc(/C=C2\C(=O)N(c3cccc(Br)c3)N=C2C(F)(F)F)cc1Cc1ccc(F)cc1`, the IC50 in assay [1] stood at 11 µM; in assay [2], 21 µM.

As to `COc1ccc(/C=C2\C(=O)N(c3cccc(Br)c3)N=C2OC(C)=O)cc1OCc1ccc(F)cc1`, the IC50 is 100 µM in assay [1] and above 100 µM in assay [2].

With `COc1ccc(/C=C2\C(=O)N(c3cccc(Cl)c3)N=C2C(F)(F)F)cc1OCc1ccc(F)cc1`, the IC50 came out at 30 µM in assay [1] and 88 µM in assay [2].

For the compound `COc1ccc(/C=C2\C(=O)N(c3cccc(Br)c3)N=C2C(F)(F)F)cc1OC`, the half-maximal inhibitory concentration (IC50) in assay [1] turned out to be 34 µM; in assay [2] it was 89 µM.

Consider `COc1ccc(/C=C2\C(=O)N(c3cccc(Br)c3)N=C2C)cc1OCc1ccc(F)cc1`, for which the IC50 in assay [1] and in assay [2] was above 100 µM throughout.

For the compound `COc1ccc(/C=C2\C(=O)N(c3cccc([N+](=O)[O-])c3)N=C2C(=O)O)cc1Cc1ccc(F)cc1`, the IC50 turned out to be 11 µM in assay [1] and 15 µM in assay [2].

Turning to `COc1ccc(/C=C2\C(=O)N(c3cccc([N+](=O)[O-])c3)N=C2C(=O)O)cc1OCc1ccc(F)cc1`, the IC50 in assay [1] came to 14 µM; in assay [2], 60 µM.

Turning to `COc1ccc(/C=C2\C(=O)N(c3nc4ccccc4s3)N=C2C(F)(F)F)cc1OCc1ccc(F)cc1`, the IC50 in assay [1] was 27 µM; in assay [2] it was above 100 µM.

As to `COc1ccc(/C=C2\C(=O)N(c3cccc(Br)c3)N=C2NC(=O)C(F)(F)F)cc1OCc1ccc(F)cc1`, the half-maximal inhibitory concentration (IC50) in assay [1] and in assay [2] was above 100 µM throughout.

`O=C(O)C1=NN(c2cccc([N+](=O)[O-])c2)C(=O)/C1=C\c1ccc(O)c(OCc2ccc(F)cc2)c1`: the IC50 in assay [1] was found to be 10 µM; in assay [2], 95 µM.

As to `COc1ccc(/C=C2\C(=O)N(c3ccc(I)cc3)N=C2C(F)(F)F)cc1OCc1ccc(F)cc1`, the IC50 is 69 µM in assay [1] and above 100 µM in assay [2].

With `O=C(O)C1=NN(c2cccc([N+](=O)[O-])c2)C(=O)/C1=C\c1ccc(OCc2ccc(F)cc2)c(O)c1`, the IC50 in assay [1] stood at 3 µM; in assay [2], 21 µM.

`COc1ccc(/C=C2\C(=O)N(c3cccc(Br)c3)N=C2C(=O)O)cc1OCc1ccc(F)cc1`: the IC50 in assay [1] was found to be 19 µM; in assay [2], 55 µM.

`COc1ccc(/C=C2\C(=O)N(c3cccc(-c4ccccc4)c3)N=C2C(F)(F)F)cc1OCc1ccc(F)cc1`: the values for the IC50 in assay [1] and in assay [2] were 16 µM and above 100 µM, respectively.

Consider `COc1ccc(/C=C2\C(=O)N(c3ccc(Br)cc3)N=C2C(F)(F)F)cc1OCc1ccc(F)cc1`, for which the values for the IC50 in assay [1] and in assay [2] were 25 µM and 82 µM, respectively.

With `COc1ccc(/C=C2\C(=O)N(c3ccc(NS(C)(=O)=O)cc3)N=C2C(F)(F)F)cc1OCc1ccc(F)cc1`, the IC50 in assay [1] and in assay [2] was above 100 µM throughout.

On to `CCC1=NN(c2cccc(Br)c2)C(=O)/C1=C\c1ccc(OC)c(OCc2ccc(F)cc2)c1`, for which the IC50 in assay [1] and in assay [2] was above 100 µM each time.

Take `COc1ccc(/C=C2\C(=O)N(c3cccc([N+](=O)[O-])c3)N=C2C(F)(F)F)cc1OCc1ccc(F)cc1`: the figures for the IC50 in assay [1] and in assay [2] were 19 µM and 52 µM, respectively.

Regarding `COc1ccc(/C=C2\C(=O)N(c3cccc(Br)c3)N=C2C(F)(F)F)c(OC)c1OC`, the concentration for half-maximal inhibition (IC50) in assay [1] and in assay [2] was above 100 µM in each case.

As for `COc1ccc(/C=C2\C(=O)N(c3cccc(Br)c3)N=C2C(F)(F)F)cc1OCc1ccc(F)cc1`, the IC50 was 40 µM in assay [1] and 83 µM in assay [2].

As to `COc1ccc(/C=C2\C(=O)N(c3ccccc3)N=C2C(F)(F)F)cc1OCc1ccc(F)cc1`, the IC50 in assay [1] and in assay [2] was above 100 µM in each case.

As for `COc1ccc(/C=C2\C(=O)N(c3cccc(I)c3)N=C2C(F)(F)F)cc1OCc1ccc(F)cc1`, the figures for the IC50 in assay [1] and in assay [2] were 35 µM and above 100 µM, respectively.

As for `CCC(=O)OC1=NN(c2cccc(Br)c2)C(=O)/C1=C\c1ccc(OC)c(OCc2ccc(F)cc2)c1`, the results for the half-maximal inhibitory concentration (IC50) in assay [1] and in assay [2] were 88 µM and above 100 µM, respectively.

Consider `COc1ccc(/C=C2\C(=O)N(c3ccc(C(=O)O)cc3)N=C2C(F)(F)F)cc1OCc1ccc(F)cc1`, for which the IC50 was 41 µM in assay [1] and above 100 µM in assay [2].

Consider `COc1ccc(/C=C2\C(=O)N(c3cc(Cl)cc(Cl)c3)N=C2C(F)(F)F)cc1OCc1ccc(F)cc1`, for which the half-maximal inhibitory concentration (IC50) in assay [1] is 12 µM; in assay [2] it was above 100 µM.

Consider `COc1ccc(/C=C2\C(=O)N(c3cccc(F)c3)N=C2C(F)(F)F)cc1OCc1ccc(F)cc1`, for which the IC50 is 60 µM in assay [1] and above 100 µM in assay [2].

As for `COc1ccc(/C=C2\C(=O)N(c3cccc(Br)c3)N=C2COC(C)=O)cc1OCc1ccc(F)cc1`, the IC50 is 57 µM in assay [1] and above 100 µM in assay [2].

As to `COc1ccc(/C=C2\C(=O)N(c3cccc(C)c3)N=C2C(F)(F)F)cc1OCc1ccc(F)cc1`, the IC50 in assay [1] and in assay [2] was above 100 µM throughout.

For the compound `COc1cc(/C=C2\C(=O)N(c3cccc(Br)c3)N=C2C(F)(F)F)cc(OC)c1OC`, the IC50 in assay [1] amounted to 15 µM; in assay [2], 61 µM.

`COc1ccc(/C=C2\C(=O)N(c3cccc(Br)c3)N=C2C(F)(F)F)cc1OCc1cccc(Cl)c1F`: the IC50 turned out to be 30 µM in assay [1] and 50 µM in assay [2].

Turning to `O=C1/C(=C\c2ccc(O)c(OCc3ccc(F)cc3)c2)C(C(F)(F)F)=NN1c1cccc(Br)c1`, the results for the IC50 in assay [1] and in assay [2] were 22 µM and above 100 µM, respectively.

`COc1ccc(/C=C2\C(=O)N(c3cccc(C(F)(F)F)c3)N=C2C(F)(F)F)cc1OCc1ccc(F)cc1`: the IC50 in assay [1] amounted to 24 µM; in assay [2], 90 µM.
